Laboratory results: patent US12084420B2, “Indoline compounds for inhibiting KIF18A” (Volastra Therapeutics, Inc., priority 2021, dated 2024)
Read-outs that look alike come from different tables or passages of the source.

Molecular target: hKIF18A (1-374) (Homo sapiens (Human), UniProt Q8NI77)
Assay: Inhibition of KIF18A microtubule-dependent ATPase activity (ADP-Glo)
[1] = KIF18A microtubule-dependent ATPase activity, biochemical assay

hKIF18A (1-374), sequence (Q8NI77 whole entry, looked up): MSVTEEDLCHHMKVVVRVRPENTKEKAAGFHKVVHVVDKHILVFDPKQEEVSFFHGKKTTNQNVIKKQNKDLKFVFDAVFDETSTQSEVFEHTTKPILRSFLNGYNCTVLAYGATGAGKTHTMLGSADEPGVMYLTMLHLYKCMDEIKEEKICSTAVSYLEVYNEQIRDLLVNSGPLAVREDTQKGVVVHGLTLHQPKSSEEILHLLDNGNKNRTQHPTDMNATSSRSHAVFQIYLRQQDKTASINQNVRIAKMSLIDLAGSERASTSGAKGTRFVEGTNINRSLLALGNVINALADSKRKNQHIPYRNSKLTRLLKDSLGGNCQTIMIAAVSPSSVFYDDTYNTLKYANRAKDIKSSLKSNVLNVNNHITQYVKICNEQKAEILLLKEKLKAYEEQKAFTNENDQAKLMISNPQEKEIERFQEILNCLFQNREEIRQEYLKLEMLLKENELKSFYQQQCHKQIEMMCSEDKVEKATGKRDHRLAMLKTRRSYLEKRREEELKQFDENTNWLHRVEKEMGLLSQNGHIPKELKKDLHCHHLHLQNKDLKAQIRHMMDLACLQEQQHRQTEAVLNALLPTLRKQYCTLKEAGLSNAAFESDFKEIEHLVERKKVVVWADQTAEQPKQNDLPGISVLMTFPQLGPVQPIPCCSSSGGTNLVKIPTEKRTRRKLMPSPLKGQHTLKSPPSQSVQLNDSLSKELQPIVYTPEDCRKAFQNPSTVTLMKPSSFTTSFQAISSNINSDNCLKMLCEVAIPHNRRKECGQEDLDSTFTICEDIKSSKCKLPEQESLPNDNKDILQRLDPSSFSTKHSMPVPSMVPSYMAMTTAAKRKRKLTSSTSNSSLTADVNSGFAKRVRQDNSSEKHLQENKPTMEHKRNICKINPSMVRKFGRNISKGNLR
hKIF18A (1-374), sequence (Q2XVP4 whole entry partner, looked up): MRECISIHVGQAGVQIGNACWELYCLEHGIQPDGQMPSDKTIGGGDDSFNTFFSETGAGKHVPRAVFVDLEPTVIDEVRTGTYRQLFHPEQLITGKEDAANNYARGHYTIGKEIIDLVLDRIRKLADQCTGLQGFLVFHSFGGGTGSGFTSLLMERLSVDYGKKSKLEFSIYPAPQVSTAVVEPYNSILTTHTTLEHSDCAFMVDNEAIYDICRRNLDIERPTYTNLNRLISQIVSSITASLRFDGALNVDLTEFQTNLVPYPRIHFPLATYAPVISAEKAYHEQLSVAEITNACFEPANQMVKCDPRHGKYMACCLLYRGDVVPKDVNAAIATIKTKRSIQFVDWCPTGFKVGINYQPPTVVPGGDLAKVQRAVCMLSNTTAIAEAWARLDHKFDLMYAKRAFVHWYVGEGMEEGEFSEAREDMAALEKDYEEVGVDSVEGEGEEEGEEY
hKIF18A (1-374), sequence (P02554 whole entry partner, looked up): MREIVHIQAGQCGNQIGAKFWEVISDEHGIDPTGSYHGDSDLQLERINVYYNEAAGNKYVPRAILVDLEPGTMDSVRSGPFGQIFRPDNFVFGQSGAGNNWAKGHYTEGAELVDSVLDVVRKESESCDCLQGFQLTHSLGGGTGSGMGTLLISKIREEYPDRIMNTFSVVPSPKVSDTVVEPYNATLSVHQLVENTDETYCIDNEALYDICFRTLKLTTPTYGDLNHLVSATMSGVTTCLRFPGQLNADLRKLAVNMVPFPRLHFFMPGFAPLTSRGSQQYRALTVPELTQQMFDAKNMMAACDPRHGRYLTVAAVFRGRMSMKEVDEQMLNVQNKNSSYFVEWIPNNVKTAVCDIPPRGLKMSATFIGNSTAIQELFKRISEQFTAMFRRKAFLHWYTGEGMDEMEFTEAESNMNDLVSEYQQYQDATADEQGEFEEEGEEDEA

Row | Structure (SMILES) | IC50 [nM] | IC50 [1] [nM]
1 | CS(=O)(=O)Nc1ccc2c(c1)C1(CCC3(CC3)CC1)CN2C(=O)c1cccc(S(=O)(=O)NC2CC(F)C2)c1 (centres unmarked) [Compound 204, N-(3-fluorocyclobutyl)-3-(5″- (methylsulfonamido)dispiro [cyclopropane-1,1′-cyclohexane-4′,3″- indoline]-1″-carbonyl)benzenesulfonamide] | 13 | –
2 | CC1(NS(=O)(=O)c2cccc(C(=O)N3CC4(CCC5(CC5)CC4)c4cc(NS(C)(=O)=O)ccc43)c2)COC1 [Compound 206, N-(3-methyloxetan-3-yl)-3-(5″- (methylsulfonamido)dispiro[cyclopropane-1,1′-cyclohexane-4′,3″-indoline]-1″-carbonyl)benzenesulfonamide] | – | 27
3 | CCC(CO)NS(=O)(=O)c1cccc(C(=O)N2CC3(CCC4(CC4)CC3)c3cc(NS(C)(=O)=O)ccc32)c1 (centres unmarked) [Compound 208, N-(1-hydroxybutan-2-yl)-3-(5″- (methylsulfonamido)dispiro[cyclopropane-1,1′-cyclohexane-4′,3″-indoline]-1″-carbonyl)benzenesulfonamide] | – | 64
4 | CC(C)C(C)NS(=O)(=O)c1cccc(C(=O)N2CC3(CCC4(CC4)CC3)c3cc(NS(C)(=O)=O)ccc32)c1 (centres unmarked) [Compound 210, N-(3-methylbutan-2-yl)-3-(5″- (methylsulfonamido)dispiro[cyclopropane-1,1′-cyclohexane-4′,3″-indoline]-1″-carbonyl)benzenesulfonamide] | – | 16
5 | CS(=O)(=O)Nc1ccc2c(c1)C1(CCC3(CC3)CC1)CN2C(=O)c1cccc(S(=O)(=O)NC2CC2)c1 [Compound 212, N-cyclopropyl-3-(5″- (methylsulfonamido)dispiro[cyclopropane-1,1′-cyclohexane-4′,3″-indoline]-1″-carbonyl)benzenesulfonamide] | – | 12
6 | CS(=O)(=O)Nc1ccc2c(c1)C1(CCC3(CC3)CC1)CN2C(=O)c1cccc(S(=O)(=O)NC(CO)C2CC2)c1 (centres unmarked) [Compound 214, N-(1-cyclopropyl-2-hydroxyethyl)-3-(5″- (methylsulfonamido)dispiro[cyclopropane-1,1′-cyclohexane-4′,3″-indoline]-1″-carbonyl)benzenesulfonamide] | – | 80
7 | CC1(NS(=O)(=O)c2cccc(C(=O)N3CC4(CCC5(CC5)CC4)c4cc(NS(C)(=O)=O)ccc43)c2)CC1 [Compound 216, N-(1-methylcyclopropyl)-3-(5″- (methylsulfonamido)dispiro[cyclopropane-1,1′-cyclohexane-4′,3″-indoline]-1″-carbonyl)benzenesulfonamide] | – | 9.3
8 | CS(=O)(=O)Nc1ccc2c(c1)C1(CCC3(CC3)CC1)CN2C(=O)c1cccc(S(=O)(=O)NC2CC(O)C2)c1 (centres unmarked) [Compound 218, N-(3-hydroxycyclobutyl)-3-(5″- (methylsulfonamido)dispiro[cyclopropane-1,1′-cyclohexane-4′,3″-indoline]-1″-carbonyl)benzenesulfonamide] | – | 100
9 | CC(C)(CO)NS(=O)(=O)c1cccc(C(=O)N2CC3(CCC4(CC4)CC3)c3cc(NS(C)(=O)=O)ccc32)c1 [Compound 220, N-(1-hydroxy-2-methylpropan-2-yl)-3-(5″- (methylsulfonamido)dispiro[cyclopropane-1,1′-cyclohexane-4′,3″-indoline]-1″-carbonyl)benzenesulfonamide] | – | 25
10 | COC1CC(NS(=O)(=O)c2cccc(C(=O)N3CC4(CCC5(CC5)CC4)c4cc(NS(C)(=O)=O)ccc43)c2)C1 (centres unmarked) [Compound 222, N-(3-methoxycyclobutyl)-3-(5″- (methylsulfonamido)dispiro[cyclopropane-1,1′-cyclohexane-4′,3″-indoline]-1″-carbonyl)benzenesulfonamide] | 100 | –
11 | CC1(NS(=O)(=O)c2cccc(C(=O)N3CC4(CCC5(CC5)CC4)c4cc(NS(C)(=O)=O)ccc43)c2)CC(F)(F)C1 [Compound 224, N-(3,3-difluoro-1-methylcyclobutyl)-3-(5″- (methylsulfonamido)dispiro[cyclopropane-1,1′-cyclohexane-4′,3″-indoline]-1″-carbonyl)benzenesulfonamide] | – | 23
12 | CS(=O)(=O)Nc1ccc2c(c1)C1(CCC3(CC3)CC1)CN2C(=O)c1cccc(S(=O)(=O)NC2CC23CC3)c1 (centres unmarked) [Compound 225, 3-(5″-(methylsulfonamido)dispiro [cyclopropane-1,1′-cyclohexane-4′,3″- indoline]-1″-carbonyl)-N-(spiro[2.2]pentan-1-yl)benzenesulfonamide] | – | 7.5
13 | CC1(NS(=O)(=O)c2cccc(C(=O)N3CC4(CCC5(CC5)CC4)c4cc(NS(C)(=O)=O)ccc43)c2)CSC1 [Compound 226, 3-(5″- (methylsulfonamido)dispiro[cyclopropane-1,1′-cyclohexane-4′,3″-indoline]-1″-carbonyl)-N-(3-methylthietan-3-yl)benzenesulfonamide] | – | 13
14 | O=C(c1cccc(S(=O)(=O)NC2CCC2)c1)N1CC2(CCC3(CC3)CC2)c2cc(NS(=O)(=O)CCO)ccc21 [Compound 227, N-cyclobutyl-3-(5″-((2-hydroxyethyl)sulfonamido)dispiro[cyclopropane-1,1′-cyclohexane-4′,3″- indoline]-1″- carbonyl)benzenesulfonamide] | – | 7.2
15 | O=C(c1cccc(S(=O)(=O)N2CC3(CCC3)C2)c1)N1CC2(CCC3(CC3)CC2)c2cc(NS(=O)(=O)CCO)ccc21 [Compound 228, N-(1″-(3-((2-azaspiro[3.3]heptan-2-yl)sulfonyl)benzoyl)dispiro[cyclopropane-1,1′-cyclohexane-4′,3″-indolin]-5″- yl)-2-hydroxyethane-1-sulfonamide] | – | 4.6
16 | O=C(c1cccc(S(=O)(=O)NC2CC(F)(F)C2)c1)N1CC2(CCC3(CC3)CC2)c2cc(NS(=O)(=O)CCO)ccc21 [Compound 230, N-(3,3-difluorocyclobutyl)-3-(5″-((2-hydroxyethyl)sulfonamido)dispiro [cyclopropane-1,1′-cyclohexane-4′,3″- indoline]-1″- carbonyl)benzenesulfonamide] | – | 14
17 | C=CCC1CC1NS(=O)(=O)c1cccc(C(=O)N2CC3(CCC4(CC4)CC3)c3cc(NS(C)(=O)=O)ccc32)c1 (centres unmarked) [Compound 235, N-(2-allylcyclopropyl)-3-(5″- (methylsulfonamido)dispiro[cyclopropane-1,1′-cyclohexane-4′,3″-indoline]-1″-carbonyl)benzenesulfonamide] | – | 22
18 | CS(=O)(=O)Nc1ccc2c(c1)C1(CCCCC1)CN2C(=O)c1cccc(S(=O)(=O)N2CCCCC2)c1 [Compound 240, N-(1′-(3-(piperidin-1-ylsulfonyl)benzoyl)spiro[cyclohexane-1,3′-indolin]-5′-yl)methanesulfonamide] | – | 40
19 | CS(=O)(=O)Nc1ccc2c(c1)C1(CCCCC1)CN2C(=O)c1cccc(S(=O)(=O)N2CCCC2)c1 [Compound 241, N-(1′-(3-(pyrrolidin-1-ylsulfonyl)benzoyl)spiro[cyclohexane-1,3′-indolin]-5′-yl)methanesulfonamide] | – | 180
20 | CC(C)(C)NS(=O)(=O)c1cccc(C(=O)N2CC3(CC=CC3)c3cc(NS(C)(=O)=O)ccc32)c1 [Compound 243, N-(tert-butyl)-3-(5′-(methylsulfonamido)spiro[cyclopentane-1,3′-indolin]-3-en-1′-carbonyl)benzenesulfonamide] | – | 140
21 | CC1(C)CCN1S(=O)(=O)c1cccc(C(=O)N2CC3(CCC4(CC4)CC3)c3cc(NS(C)(=O)=O)ccc32)c1 [Compound 245, N-(1″-(3-((2,2-dimethylazetidin-1-yl)sulfonyl)benzoyl)dispiro[cyclopropane-1,1′-cyclohexane-4′,3″-indolin]-5″- yl)methanesulfonamide] | – | 34
22 | CC1CCN(S(=O)(=O)c2cccc(C(=O)N3CC4(CCC5(CC5)CC4)c4cc(NS(C)(=O)=O)ccc43)c2)C1 (centres unmarked) [Compound 249, N-(1″-(3-((3-methylpyrrolidin-1-yl)sulfonyl)benzoyl)dispiro[cyclopropane-1,1′-cyclohexane-4′,3″-indolin]-5″- yl)methanesulfonamide] | – | 9
23 | CS(=O)(=O)c1ccc2c(c1)C1(CCCCC1)CN2C(=O)c1cccc(S(=O)(=O)N2CCCCC2)c1 [Compound 250, (5′-(methylsulfonyl)spiro[cyclohexane-1,3′-indolin]-1′-yl)(3-(piperidin-1-ylsulfonyl)phenyl)methanone] | – | 670
24 | CC1CCC2(C1)CN(C(=O)c1cccc(S(=O)(=O)NC(C)(C)C)c1)c1ccc(NS(C)(=O)=O)cc12 (centres unmarked) [Compound 252, N-(tert-butyl)-3-(3-methyl-5′-(methylsulfonamido)spiro[cyclopentane-1,3′-indoline]-1′-carbonyl)benzenesulfonamide] | – | 34
25 | CC1(O)CN(S(=O)(=O)c2cccc(C(=O)N3CC4(CCC5(CC5)CC4)c4cc(NS(C)(=O)=O)ccc43)c2)C1 [Compound 255, N-(1″-(3-((3-hydroxy-3-methylazetidin-1-yl)sulfonyl)benzoyl)dispiro[cyclopropane-1,1′-cyclohexane-4′,3″-indolin]-5″- yl)methanesulfonamide] | – | 63
26 | C=C1CN(S(=O)(=O)c2cccc(C(=O)N3CC4(CCC5(CC5)CC4)c4cc(NS(C)(=O)=O)ccc43)c2)C1 [Compound 258] | – | 14
27 | CC1CN(S(=O)(=O)c2cccc(C(=O)N3CC4(CCC5(CC5)CC4)c4cc(NS(C)(=O)=O)ccc43)c2)C1 [Compound 260, N-(1″-(3-((3-methylazetidin-1-yl)sulfonyl)benzoyl)dispiro[cyclopropane-1,1′-cyclohexane-4′,3″-indolin]-5″- yl)methanesulfonamide] | – | 12
28 | CCS(=O)(=O)Nc1ccc2c(c1)C1(CCC3(CC3)CC1)CN2C(=O)c1cccc(S(=O)(=O)NC2CCC2)c1 [Compound 261, N-cyclobutyl-3-(5″- (ethylsulfonamido)dispiro[cyclopropane-1,1′-cyclohexane-4′,3″-indoline]-1″- carbonyl)benzenesulfonamide] | – | 9.3
29 | CS(=O)(=O)Nc1ccc2c(c1)C1(CCC3(CC3)CC1)CN2C(=O)c1cccc(S(=O)(=O)NC2(C#N)CC2)c1 [Compound 264, N-(1-cyanocyclopropyl)-3-(5″- (methylsulfonamido)dispiro[cyclopropane-1,1′-cyclohexane-4′,3″-indoline]-1″-carbonyl)benzenesulfonamide] | – | 35
